Experimental data taken from PMC9511493, “2-(Fluoromethoxy)-4′-(S-methanesulfonimidoyl)-1,1′-biphenyl (UCM-1306), an Orally Bioavailable Positive Allosteric Modulator of the Human Dopamine D1 Receptor for Parkinson’s Disease” (Journal of Medicinal Chemistry, 2022).

Assays:
[1] = target: T1, human D2R (Homo sapiens, UniProt P14416); assay: functional cAMP assay at recombinant human D2R in CHO cells; assay type: cell-based; details: 10 μM compound
T1 construct: expressed in transfected cells; host or cells: in-house CHO cell line
T1 sequence (P14416 whole entry): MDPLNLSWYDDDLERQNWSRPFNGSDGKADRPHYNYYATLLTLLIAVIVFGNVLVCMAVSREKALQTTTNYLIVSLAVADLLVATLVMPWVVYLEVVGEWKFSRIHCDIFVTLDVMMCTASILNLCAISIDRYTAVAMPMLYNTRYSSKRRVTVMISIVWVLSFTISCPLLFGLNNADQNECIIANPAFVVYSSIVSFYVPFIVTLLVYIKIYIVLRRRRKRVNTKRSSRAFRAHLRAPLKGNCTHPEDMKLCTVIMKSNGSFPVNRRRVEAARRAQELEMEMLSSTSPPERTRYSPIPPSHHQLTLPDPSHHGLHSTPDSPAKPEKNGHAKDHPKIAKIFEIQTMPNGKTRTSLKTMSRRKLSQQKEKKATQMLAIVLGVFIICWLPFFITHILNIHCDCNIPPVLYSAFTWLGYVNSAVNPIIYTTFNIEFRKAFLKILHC
Experimental: Functional studies at human D1 and D2 receptors were carried out in endogenously expressed human D1R in the SK-N-MC cell line (ATCC), and recombinant human D2R stably transfected in an in-house CHO cell line. Cells were thawed and seeded into a black 96-well plate (1 × 10^4 cells/well for SK-N-MC cell line, 5 × 10^3 cells/well for CHO cell line) in Opti-MEM containing 500 μM IBMX (3-isobutyl-1-methylxanthine). Test compounds were added to the cells and incubated for 15 min at 25 °C for D1R, and for 5 min at 37 °C for D2R. After this time, dopamine was added to the corresponding wells and incubated for additional 15 min at 25 °C for D1R, and 10 min at 37 °C for D2R. Next, treated cells were lysed (for the D2R assay, cells were previously treated with 10 μM forskolin for 5 min at 37 °C) and the cAMP concentration was measured by HTRF, using a kit from Cisbio. HTRF was read in a Tecan M1000 Genius Pro reader (λexcitation = 320 nm, λemission = 620 and 665 nm, 30 flashes), and data were normalized to the dopamine maximum effect and fitted to a 4-parameter logistic equation by using Prism v2.1 software (GraphPad Inc).

[2] = stability in mouse serum; assay type: in vitro ADME; details: remaining compound after 4 h
[3] = target: T2, human D4R (Homo sapiens, UniProt P21917); assay: PatHunter beta-arrestin assay at human D4R; assay type: cell-based; details: 10 μM compound
T2 construct: host or cells: cells supplied with the PatHunter Beta-arrestin eXpress GPCR assay kit
T2 sequence (P21917 1-419): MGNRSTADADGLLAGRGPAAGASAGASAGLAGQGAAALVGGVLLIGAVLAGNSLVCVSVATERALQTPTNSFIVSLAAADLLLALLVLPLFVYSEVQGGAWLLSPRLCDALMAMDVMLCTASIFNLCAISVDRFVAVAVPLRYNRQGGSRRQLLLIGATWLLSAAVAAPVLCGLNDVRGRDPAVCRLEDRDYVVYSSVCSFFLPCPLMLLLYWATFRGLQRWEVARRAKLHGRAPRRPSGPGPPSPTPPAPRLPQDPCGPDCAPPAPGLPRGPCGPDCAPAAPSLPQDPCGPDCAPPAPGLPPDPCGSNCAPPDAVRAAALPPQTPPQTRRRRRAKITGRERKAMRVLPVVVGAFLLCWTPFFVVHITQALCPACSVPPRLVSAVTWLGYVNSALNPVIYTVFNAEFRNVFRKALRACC
Experimental: (§1) Functional studies at both human D3 and D4 receptors were carried out in human D3 and D4 receptors, using a PatHunter Beta-arrestin eXpress GPCR assay kit from DiscoverX. Briefly, cells were plated and maintained for 48 h at 37 °C in a 5% CO2 atmosphere in cell plating reagent provided in the kit. After this time, test compounds were added to the cells and incubated for 30 min at 37 °C. Dopamine was added to the cells and incubated for an additional 90 min at 37 °C. Cells were then treated with the working detection solution provided with the kit for 1 h and beta-arrestin translocation was measured by luminescence detection (integration time = 500 ms) in a Tecan M1000 Genius Pro reader. Data were normalized to dopamine maximum effect and fitted to a 4-parameter logistic equation using Prism v2.1 software (GraphPad Inc).

[4] = target: T3, human D3R (Homo sapiens, UniProt P35462); assay: PatHunter beta-arrestin assay at human D3R; assay type: cell-based; details: 10 μM compound
T3 construct: host or cells: cells supplied with the PatHunter Beta-arrestin eXpress GPCR assay kit
T3 sequence (P35462 whole entry): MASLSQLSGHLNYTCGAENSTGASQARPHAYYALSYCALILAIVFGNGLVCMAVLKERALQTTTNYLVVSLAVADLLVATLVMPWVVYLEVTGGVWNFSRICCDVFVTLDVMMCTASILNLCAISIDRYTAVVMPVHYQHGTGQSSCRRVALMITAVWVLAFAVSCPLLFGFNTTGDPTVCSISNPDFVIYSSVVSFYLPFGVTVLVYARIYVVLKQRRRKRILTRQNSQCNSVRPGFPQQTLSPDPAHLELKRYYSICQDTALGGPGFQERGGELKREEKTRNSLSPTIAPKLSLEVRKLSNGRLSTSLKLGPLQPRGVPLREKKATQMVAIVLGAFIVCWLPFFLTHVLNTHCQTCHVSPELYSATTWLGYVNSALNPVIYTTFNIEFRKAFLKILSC
Experimental: as §1

[5] = parallel artificial membrane permeability assay (PAMPA); assay type: in vitro ADME; details: read-out: P
Experimental: Parallel artificial membrane permeability assay (PAMPA). The assessment of the membrane permeability of selected compounds and reference compounds propranolol and metoprolol was performed in a commercially available 96-well Corning Gentest pre-coated PAMPA plate system (Cultek S.L.U., Spain). Prior to use, the pre-coated PAMPA plate system was warmed to rt for 30 min and 300 μL of 200 μM solution of tested compound in 2% DMSO in PBS were added to the wells in the receiver (donor) plate.
Then, 200 μL of PBS were added to the wells in the filter (acceptor) plate. The filter plate was placed on the receiver plate by slowly lowering the pre-coated PAMPA plate until it sits on the receiver plate. […] The final concentrations of compound in both donor and acceptor wells were analyzed by HPLC-MS using SIM mode, and quantification was estimated by using the peak area integration normalized with an internal standard. Permeability value of the compounds was calculated using the following formula: P (cm/s) = {-ln[1-CA(t)/Ceq]}/[A*(1/VD+1/VA)*t], where A = filter area (0.3 cm2), VD = donor well volume (0.3 mL), VA = acceptor well volume (0.2 mL), t = incubation time (s), CA(t) = compound concentration (μM) in acceptor well at time t, CD(t) = compound concentration (μM) in donor well at time t, and Ceq = […]

## O=Cc1ccc(-c2ccccc2OCF)cc1 [Compound 3, 2′-(Fluoromethoxy)[1,1′-biphenyl]-4-carbaldehyde]
[1]
  enhancement of DA Emax at human D2 receptor: did not enhance DA Emax
[2]
  mouse serum stability (%): 50%
[3]
  enhancement of DA Emax at human D4 receptor: did not enhance DA Emax
[4]
  enhancement of DA Emax at human D3 receptor: did not enhance DA Emax
[5]
  Papp at 5 h, 200 μM: 20 ×10⁻⁶ cm/s

## CS(=N)(=O)c1ccc(-c2ccccc2OCF)cc1 (stereo not shown) [Compound 26, 2-(Fluoromethoxy)-4′-(S-methanesulfonimidoyl)-1,1′-biphenyl]
[1]
  enhancement of DA Emax at human D2 receptor: subtype selectivity
[2]
  mouse serum stability (%): 93%
[3]
  enhancement of DA Emax at human D4 receptor: subtype selectivity
[4]
  enhancement of DA Emax at human D3 receptor: subtype selectivity
[5]
  Papp at 5 h, 200 μM: 24 ×10⁻⁶ cm/s
